The values that follow are results of earlier work, collected in US8513407B2, “Process for the preparation of N-acyl-(epi)K5-amine-O-sulfate-derivatives and products thus obtained” (GLYCORES 2000 S.r.l., priority 2002, dated 2013).

This data set deals with HIV. Conditions: compared with K5-O-oversulfate and heparin.

With K5-N,O-oversulfate, the anti-HIV activity entry is “more active than K5-O-oversulfate and much more active than heparin”.
